In the NIST ThermoML archive (doi:10.1016/j.fluid.2015.06.034) one finds mass density data, which are given here for 1 molecule.

SMILES strings stand for the structures. Numbers after ± are expanded uncertainties.

This series can be described thus: wn = mass fraction of the nth substance listed. As to conditions: Liquid, Vibrating tube method, w1 = 0.45.

For the molecule `CN(CCO)CCO` [N-methyldiethanolamine] + O, the mass density (as a rule, the mass of a sample divided by its volume) is on record as 1037.2 ± 5 kg/m3 (303.15 K), 1024.8 ± 5 kg/m3 (323.15 K), 1011.5 ± 5 kg/m3 (343.15 K) and 996.4 ± 5 kg/m3 (363.15 K).
